# Test results as given in US6355617B1, “Peptide derivatives” (Syngenta Limited, priority 1996, dated 2002).
# Experiments:
# [1] = biological target: T1, HLA-DR4Dw4 (Homo sapiens, UniProt P01903+P01911, A100K/A169T/F76Y/I96L/K127E/L162R/M171V/N62H/P40V/Q125Y/R42H/S133A/S149N/S66Y/V115G/V209L/W38E); assay: Test A: Purified HLA-DR peptide in vitro binding assay; settings: competition with biotin-FHA307-320, 48 hours incubation
# T1 construct: a cDNA encoding the β chain is cloned into the transfer vector pAcUW1; made in house; host or cells: Sf21 insect cells, double-recombinant baculovirus
# Method: Test A: Purified HLA-DR peptide in vitro binding assay. […]. At the end of the incubation period 100 μl of the incubate is transferred to Enzyme Linked ImmunoSorbant Assay (ELISA) plates (Nunc) previously coated with an anti-MHC antibody (L243-American Type Culture Collection (ATCC) HB55 as described in Lampson and Levy (1980) J. Immunol. 125, 293-299) at a concentration of 10 μg/ml for 1 hour at room temperature and blocked thereafter for 1 hour with 1% bovine serum albumin (BSA) in PBS and 0.05% Tween 20. […] The reaction is stopped by adding 2M sulphuric acid (10 μl per well) and the absorbance read at 450 nm to quantify the amount of peptide bound. The inhibitory activity-of peptides is obtained by plotting absorbance against concentration. […]
# To create the double-recombinant baculovirus, a cDNA encoding the β chain is cloned into the transfer vector pAcUW1 [Weyer, U; Knight, S & Possee, R D (1990) J. Gen. […] Double-recombinant viruses are detected by spotting insect cells, infected with randomly picked viruses from the transfection, onto membranes and reacting them with a monoclonal antibody e.g. L243 which specifically recognises the HLA-DR heterodimer. Binding of the antibody to Sf21 insect cells is detected using standard flow cytometry techniques, readily available in the literature. […]
# [2] = system: BALB/C mice; assay: Test C: Peptide stimulated DTH (delayed type hypersensitivity) in BALB/C mice; format: in vivo; settings: ovalbumin DTH footpad swelling, 3-day osmotic mini-pumps
# Method: Test C: Peptide stimulated DTH (delayed type hypersensitivity) in BALB/C mice. […] Balb/c female mice (18-20 g), 5 per group, were immunised sub-cutaneously on the flank with 0.1 ml of an emulsion of ovalbumin (Sigma) (2 mg/ml in saline) mixed 1:1 (v/v) with complete Freunds adjurant (Sigma). Seven days later footpad thickness was determined using a dual caliper micrometer followed by a challenge in one hind footpad with a 30 μl sub-plantar injection of 1% heat-aggregated ovalbumin protein in saline. Twenty-four hours after antigen challenge, footpads were measured and the DTH response calculated as the percentage increase in footpad thickness in the injected footpad compared to contralateral control. Inhibitors were adminstered by 3-day osmotic mini-pumps (Alzet) implanted 24 hours prior to antigen challenge at doses ranging from 10 mg/kg/day to 0.1 μg/kg/day. The degree of inhibition was calculated by substracting the value for swelling of inhibitor treated footpads from that of the vehicle dosed controls, dividing by the control value and multiplying by 100%.
substance,measurement,setting,value
Phv-Arg-Ala-IIb-Thr-Ala-Ala-Ala-Papa-NH2 [Example 1],concentration showing significant binding to HLA-DR4Dw4 in Test A,[1],≤ 0.1 µM
same,dose at which active in Test C,[2],< 0.1 mg/kg/day
